Experimental findings from patent US20020198373A1, “PARTICULATE DRUG CARRIERS” (priority 1997, published 2002) are described below.

The series relates to human erythrocytes. The series is described as follows: Haemocompatibility study (haemolysis). Type of series: cell-based. The settings on record: erythrocyte, 5 h, relative to triton X-100 100% and PBS 0%. The procedure: Freshly drawn human blood was centrifuged (3,000 g) to separate the red blood cells. These were washed in PBS (pH=7.4) and weighed. 3 g of the erythrocyte pellet was dispersed in 100 mL PBS (pH=7.4) and incubated for 5 h with various concentrations of GCP41, cholesterol vesicles prepared as described above or DOTAP vesicles (Sigma Chemical Co., UK). Haemolysis was assessed by centrifugation (3,000 g) to isolate the released haemoglobin, addition of 2×volume of isopropanol to the supernatant and the measurement of the absorbance (570 nm).

SMILES strings stand for the structures.

Turning to `CCCCCCCC/C=C\CCCCCCCC(=O)OCC(C[N+](C)(C)C)OC(=O)CCCCCCC/C=C\CCCCCCCC.COS(=O)(=O)[O-]` (centres unmarked) [DOTAP, N-[1-(2,3-dioleoyloxy)propyl]-N,N,N-trimethylammonium methylsulphate], the “% Haemolysis (n = 3)” value (DOTAP ratio 30) was determined as 101.4 ± 20.4% and the “% Haemolysis (n = 3)” value (DOTAP ratio 300) came to 71.0 ± 10.6%.
